Test results from US20210213097A1, “PEPTIDE INTERACTING WITH TOLL-LIKE RECEPTOR 2 AND THE COMPOSITION COMPRISING THE SAME” (NATIONAL TAIPEI UNIVERSITY OF TECHNOLOGY, priority 2020, published 2021).
“Also recorded” adds a separate entry of the source.

Key:
zebra fish [1] = assay: Zebra fish fed 6 times per day (autofat animal model), Example 5: body weight and glucose; type: in vivo; conditions: Example 5, normal diet 6 times per day; for level of glucose: Day 13, FIG. 8 lower panel; for body weight at end of experimentation (Day 13) compared to the original level and the GST group: FIG. 8
Method: Zebra fish was bred in 25° C. water (pH 6.5-7.5, conductivity 250-750 S·m^−1, NH3<0.25 ppm, NO2<0.25 ppm, NO3<0.5 ppm) and was fed with normal diet bid. (brine shrimp). Each group of experimentation comprises 10 zebra fish (n=10). The gavage feeding of Zebra fish follows the protocol disclosed in Collymore et al. (Journal of Visualized Experiment (2013)). During 13 days of experimentation, the zebra fish were fed once a day with the peptide fragments as disclosed herein in a 1× dose of 0.03 μg/day/fish. The weight of zebra fish was measured respectively on day 0, 1, 3, 6, 9, 12 and 13. In the present example, five groups of zebra fish were administered with the peptides as disclosed herein: The material and method employed in the present example is similar to that of Example 3, which is not repeated herein, except the following difference. In the present example, Zebra fish was bred and fed with normal diet (brine shrimp) 6 times per day and also with the peptide as disclosed herein once per day, to induce an autofat animal model. In the present example, five groups of zebra fish were administered with the peptides as disclosed herein: […]

[2] = test system: gene expression of MPX, IL10, CD86, and IL4; assay: RT-qPCR of gene expression in zebra fish treated with peptide, Example 3; type: in vivo; conditions: Day 13, FIG. 4
Method: Y axis (-ΔΔCT) represents the difference in the threshold cycle of amplification. **: P<0.01; ****: P<0.0001. Further, the RT(reversed-transcription)-qPCR was conducted to detect the quantity of gene expression of MPX, IL10, CD86, and IL4 in the zebra fish treated with AMSS according to the present example. […] (FIG. 4)

zebra fish [3] = assay: Treatment of obesity in zebra fish, Example 3: body weight and glucose; type: in vivo; conditions: 0.03 μg/day/fish
From the text: Zebra fish has been for a long time used as a model of obesity in many reports (Hasumura et al. Nutrition & Metabolism (2012); […] et al. Nutrition & Metabolism (2011); Oka et al. BMC Physiology (2010); Shimada et al. Nutrition & Metabolism (2015); Meguro et al. Scientific Reports (2019); Montalbano et al. Endocrine (2018); Yang et al. Cancer (2019)), which is also used herein as the subject of treatment of obesity with the peptides as disclosed herein. All peptides used in the present example were purified through CHT beads to remove endotoxin. LAL assay was further conducted and it was confirmed that the residue of endotoxin was under 0.25 EU/ml. Zebra fish was bred in 25° C. water (pH 6.5-7.5, conductivity 250-750 S·m^-1, NH3<0.25 ppm, NO2<0.25 ppm, NO3<0.5 ppm) and was fed with normal diet bid. (brine shrimp). Each group of experimentation comprises 10 zebra fish (n=10). The gavage feeding of Zebra fish follows the protocol disclosed in Collymore et al. (Journal of Visualized Experiment (2013)). During 13 days of experimentation, the zebra fish were fed once a day with the peptide fragments as disclosed herein in a 1× dose of 0.03 μg/day/fish. The weight of zebra fish was measured respectively on day 0, 1, 3, 6, 9, 12 and 13. In the present example, five groups of zebra fish were administered with the peptides as disclosed herein: […]

human TLR2 = target: T1, human TLR2 (Homo sapiens, UniProt O60603); assay: TLR induction screening in recombinant HEK-293 with NF-KB driven SEAP reporter; type: cell-based; conditions: final concentration 10 μg/ml; recombinant HEK-293 overexpressing human TLR; FIG. 1A
T1 construct: host or cells: recombinant HEK-293
Method: Human Embryonic Kidney Cells 293 (HEK-293) were treated with the peptide fragments as disclosed herein.
Samples and controls are tested in duplicate on recombinant HEK-293 cell lines. These cell lines functionally overexpress human TLR as well as a reporter gene which is a secreted alkaline phosphatase (SEAP). The production of this reporter gene is driven by a NF-KB inducible promoter. The level of activation is given as optical density values (OD).
Samples in 100 μg/ml were diluted to a final concentration of 10 μg/ml in the reaction volume. Sample and controls are tested in duplicated wells. BSA is used as negative control.
SEAP reporter is detected as OD value. OD value is subtracted by average non-induced (NI) value. The NI subtracted duplicates are averaged and presented in a histogram. The reagents and materials employed in the instant examples were provided by Invivogen.

T1 sequence (O60603 21-784): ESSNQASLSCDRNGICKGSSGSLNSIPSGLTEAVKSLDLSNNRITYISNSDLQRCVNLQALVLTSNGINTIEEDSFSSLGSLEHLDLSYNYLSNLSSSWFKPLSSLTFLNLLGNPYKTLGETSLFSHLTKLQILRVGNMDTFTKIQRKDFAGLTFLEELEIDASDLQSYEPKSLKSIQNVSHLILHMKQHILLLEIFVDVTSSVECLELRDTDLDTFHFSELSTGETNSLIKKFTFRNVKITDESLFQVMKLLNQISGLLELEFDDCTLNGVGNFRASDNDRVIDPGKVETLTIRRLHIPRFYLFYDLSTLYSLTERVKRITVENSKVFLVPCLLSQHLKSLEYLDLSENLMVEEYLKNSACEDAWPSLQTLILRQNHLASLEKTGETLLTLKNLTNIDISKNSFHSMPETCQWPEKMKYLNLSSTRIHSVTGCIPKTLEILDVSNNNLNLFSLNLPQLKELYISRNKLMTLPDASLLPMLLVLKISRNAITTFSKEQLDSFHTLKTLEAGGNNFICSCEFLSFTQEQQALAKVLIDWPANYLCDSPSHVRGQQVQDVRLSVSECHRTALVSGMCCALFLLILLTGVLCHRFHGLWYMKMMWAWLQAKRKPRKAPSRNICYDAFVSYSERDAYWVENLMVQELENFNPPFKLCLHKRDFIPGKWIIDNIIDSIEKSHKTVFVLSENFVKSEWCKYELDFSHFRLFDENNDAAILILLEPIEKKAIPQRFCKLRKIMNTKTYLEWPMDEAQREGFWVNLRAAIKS

| Molecule | level of glucose (zebra fish [1]) | body weight at end of experimentation (Day 13) compared to the original level and the GST group (zebra fish [1]) | gene expression of IL4 [2] | gene expression of IL10 [2] | gene expression of MPX [2] | glucose detected in the serum of zebra fish (zebra fish [3]; Day 13, FIG. 3 lower panel) | reduction in body weight at end of experimentation (Day 13) (zebra fish [3]; Day 13 versus day 0, FIG. 3 upper panel) | change in body weight of zebra fish (zebra fish [3]; gavage once a day, 13 days, normal diet bid, FIG. 2) | reduction of body weight in average (zebra fish [3]; gavage once a day, end of experimentation, FIG. 2) | induction of TLR (SEAP reporter, OD) (human TLR2) |
| --- | --- | --- | --- | --- | --- | --- | --- | --- | --- | --- |
| AMS5-2: fragment of Amuc_1100*, sequence GLSKFIKVYRPQL (listed as Akkermansia muciniphila) | reduced | further reduced |  |  |  |  |  |  |  |  |
| AMS5: fragment of Amuc_1100*, sequence AINSLVNKLAECGLSKFIKVYRPQL (listed as Akkermansia muciniphila) |  |  | significantly reduced | significantly reduced | did not | did not reduce | shows statistical significance | significant reduction in body weight | approximately 20 mg | strongly and specifically activated; also recorded: capable to activate TLR2; also recorded: shows the activity for induction of TLR |
| Amuc_1100*: protein Amuc_1100 of Akkermansia muciniphila which does not include the transmembrane domain, SEQ ID NO.1 (protein, listed as Akkermansia muciniphila) IVNSKRSELDKKISIAAKEIKSANAAEITPSRSSNEELEKELNRYAKAVGSLETAYKPFLASSALVPTTPTAFQNELKTFRDSLISSCKKKNILITDTSSWLGFQVYSTQAPSVQAASTLGFELKAINSLVNKLAECGLSKFIKVYRPQLPIETPANNPEESDEADQAPWTPMPLEIAFQGDRESVLKAMNAITGMQDYLFTVNSIRIRNERMMPPPIANPAAAKPAAAQPATGAASLTPADEAAAPAAPAIQQVIKPYMGKEQVFVQVSLNLVHFNQPKAQEPSED | reduced | further reduced |  |  |  |  |  |  |  |  |
